{"source": "patent EP0432983A2", "about": "(priority 1989, dated 1991)", "key": {"[1]": {"system": "P-388 (mouse DBA/2 lymphoid neoplasm)", "assay": "General anti-tumour assay, P-388", "format": "cell-based", "procedure": "(§1) With compounds AH-3, AH-4 and AH-5, four general anti-tumour assays and two cytotoxicity assays were performed. Current screening protocols were employed using test substance diluted as above and at varying concentrations. Tests were performed against the tumour cells P-388 (mouse DBA/2 lymphoid neoplasm), A-549 (human lung carcinoma), HT-29 (human colon carcinoma) and MCF-7 (human breast carcinoma) and for the cytotoxicity assays against CV-1 (monkey kidney fibroblast) and BHK (Hamster kidney fibroblast).\n(§2) Scoring is performed as follows: (-) no activity - the number of cells is equal to the control of growth, 0-40% cell inhibition (+) low activity - numbers of cells are reduced by approx 50-60% (++) good activity - numbers of cells are reduced by approx 70-90% (+++) very good activity - there is 100% cell inhibition [(+) is the approximate IC₅₀]"}, "[2]": {"system": "A-549 (human lung carcinoma)", "assay": "General anti-tumour assay, A-549", "format": "cell-based", "procedure": "as §1, §2"}, "[3]": {"system": "HT-29 (human colon carcinoma)", "assay": "General anti-tumour assay, HT-29", "format": "cell-based", "procedure": "as §1, §2"}, "[4]": {"system": "MCF-7 (human breast carcinoma)", "assay": "General anti-tumour assay, MCF-7", "format": "cell-based", "procedure": "as §1, §2"}, "[5]": {"system": "CV-1 (monkey kidney fibroblast)", "assay": "Cytotoxicity assay, CV-1", "format": "cell-based", "procedure": "as §1, §2"}, "[6]": {"system": "BHK (Hamster kidney fibroblast)", "assay": "Cytotoxicity assay, BHK", "format": "cell-based", "procedure": "as §1, §2"}, "[7]": {"system": "HSV-1 (herpes simplex virus, type 1)", "assay": "General anti-viral assay, HSV-1 in CV-1 cells (plaque reduction)", "format": "cell-based", "conditions": "Human alphaherpesvirus 1; CV-1/ HSV-1; read-out: IC50 µg/ml approx"}, "[8]": {"system": "VSV (Vesicular Stomatitis Virus)", "assay": "microbe, parasite or virus in culture", "format": "cell-based", "conditions": "BHK, read-out: IC50 µg/ml approx"}, "[9]": {"system": "BHK cells"}}, "data": [{"smiles": "CC(C)=CCCC(C)C1CCC(C)c2c1cc(C)c1c2OCO1", "note": "(stereo not drawn) [AH-4, Helioporin D]", "values": [{"measurement": "IC50", "setting": "[1]; Mus musculus, P388, P-388, read-out: IC50 µg/ml approx", "result": "~2", "unit": "µg/mL"}, {"measurement": "activity (cell inhibition)", "setting": "[1]; P-388, TEST CONC (µg) 0.2", "result": "- ((-) no activity - the number of cells is equal to the control of growth, 0-40% cell inhibition)"}, {"measurement": "activity (cell inhibition)", "setting": "[1]; P-388, TEST CONC (µg) 0.5", "result": "- ((-) no activity - the number of cells is equal to the control of growth, 0-40% cell inhibition)"}, {"measurement": "activity (cell inhibition)", "setting": "[1]; P-388, TEST CONC (µg) 1", "result": "- ((-) no activity - the number of cells is equal to the control of growth, 0-40% cell inhibition)"}, {"measurement": "activity (cell inhibition)", "setting": "[1]; P-388, TEST CONC (µg) 2", "result": "+ ((+) low activity - numbers of cells are reduced by approx 50-60%)"}, {"measurement": "activity (cell inhibition)", "setting": "[1]; P-388, TEST CONC (µg) 5", "result": "++ ((++) good activity - numbers of cells are reduced by approx 70-90%)"}, {"measurement": "activity (cell inhibition)", "setting": "[1]; P-388, TEST CONC (µg) 10", "result": "++ ((++) good activity - numbers of cells are reduced by approx 70-90%)"}, {"measurement": "activity (cell inhibition)", "setting": "[1]; P-388, TEST CONC (µg) 20", "result": "++ ((++) good activity - numbers of cells are reduced by approx 70-90%)"}, {"measurement": "activity (cell inhibition)", "setting": "[2]; A-549, TEST CONC (µg) 0.2", "result": "- ((-) no activity - the number of cells is equal to the control of growth, 0-40% cell inhibition)"}, {"measurement": "activity (cell inhibition)", "setting": "[2]; A-549, TEST CONC (µg) 0.5", "result": "- ((-) no activity - the number of cells is equal to the control of growth, 0-40% cell inhibition)"}, {"measurement": "activity (cell inhibition)", "setting": "[2]; A-549, TEST CONC (µg) 1", "result": "- ((-) no activity - the number of cells is equal to the control of growth, 0-40% cell inhibition)"}, {"measurement": "activity (cell inhibition)", "setting": "[2]; A-549, TEST CONC (µg) 2", "result": "- ((-) no activity - the number of cells is equal to the control of growth, 0-40% cell inhibition)"}, {"measurement": "activity (cell inhibition)", "setting": "[2]; A-549, TEST CONC (µg) 5", "result": "- ((-) no activity - the number of cells is equal to the control of growth, 0-40% cell inhibition)"}, {"measurement": "activity (cell inhibition)", "setting": "[2]; A-549, TEST CONC (µg) 10", "result": "++ ((++) good activity - numbers of cells are reduced by approx 70-90%)"}, {"measurement": "activity (cell inhibition)", "setting": "[2]; A-549, TEST CONC (µg) 20", "result": "++ ((++) good activity - numbers of cells are reduced by approx 70-90%)"}, {"measurement": "IC50", "setting": "[2]; Homo sapiens, A549, A-549, read-out: IC50 µg/ml approx", "result": "5 to 10", "unit": "µg/mL"}, {"measurement": "activity (cell inhibition)", "setting": "[3]; HT-29, TEST CONC (µg) 0.2", "result": "- ((-) no activity - the number of cells is equal to the control of growth, 0-40% cell inhibition)"}, {"measurement": "activity (cell inhibition)", "setting": "[3]; HT-29, TEST CONC (µg) 0.5", "result": "- ((-) no activity - the number of cells is equal to the control of growth, 0-40% cell inhibition)"}, {"measurement": "activity (cell inhibition)", "setting": "[3]; HT-29, TEST CONC (µg) 1", "result": "- ((-) no activity - the number of cells is equal to the control of growth, 0-40% cell inhibition)"}, {"measurement": "activity (cell inhibition)", "setting": "[3]; HT-29, TEST CONC (µg) 2", "result": "- ((-) no activity - the number of cells is equal to the control of growth, 0-40% cell inhibition)"}, {"measurement": "activity (cell inhibition)", "setting": "[3]; HT-29, TEST CONC (µg) 5", "result": "+ ((+) low activity - numbers of cells are reduced by approx 50-60%)"}, {"measurement": "activity (cell inhibition)", "setting": "[3]; HT-29, TEST CONC (µg) 10", "result": "+++ ((+++) very good activity - there is 100% cell inhibition)"}, {"measurement": "activity (cell inhibition)", "setting": "[3]; HT-29, TEST CONC (µg) 20", "result": "+++ ((+++) very good activity - there is 100% cell inhibition)"}, {"measurement": "IC50", "setting": "[3]; Homo sapiens, HT-29, read-out: IC50 µg/ml approx", "result": "~5", "unit": "µg/mL"}, {"measurement": "IC50", "setting": "[4]; Homo sapiens, MCF7, MCF-7, read-out: IC50 µg/ml approx", "result": "~10", "unit": "µg/mL"}, {"measurement": "activity (cell inhibition)", "setting": "[4]; MCF-7, TEST CONC (µg) 0.2", "result": "- ((-) no activity - the number of cells is equal to the control of growth, 0-40% cell inhibition)"}, {"measurement": "activity (cell inhibition)", "setting": "[4]; MCF-7, TEST CONC (µg) 0.5", "result": "- ((-) no activity - the number of cells is equal to the control of growth, 0-40% cell inhibition)"}, {"measurement": "activity (cell inhibition)", "setting": "[4]; MCF-7, TEST CONC (µg) 1", "result": "- ((-) no activity - the number of cells is equal to the control of growth, 0-40% cell inhibition)"}, {"measurement": "activity (cell inhibition)", "setting": "[4]; MCF-7, TEST CONC (µg) 2", "result": "- ((-) no activity - the number of cells is equal to the control of growth, 0-40% cell inhibition)"}, {"measurement": "activity (cell inhibition)", "setting": "[4]; MCF-7, TEST CONC (µg) 5", "result": "- ((-) no activity - the number of cells is equal to the control of growth, 0-40% cell inhibition)"}, {"measurement": "activity (cell inhibition)", "setting": "[4]; MCF-7, TEST CONC (µg) 10", "result": "+ ((+) low activity - numbers of cells are reduced by approx 50-60%)"}, {"measurement": "activity (cell inhibition)", "setting": "[4]; MCF-7, TEST CONC (µg) 20", "result": "++ ((++) good activity - numbers of cells are reduced by approx 70-90%)"}, {"measurement": "activity (cell inhibition)", "setting": "[5]; CV-1, TEST CONC (µg) 0.2", "result": "- ((-) no activity - the number of cells is equal to the control of growth, 0-40% cell inhibition)"}, {"measurement": "activity (cell inhibition)", "setting": "[5]; CV-1, TEST CONC (µg) 0.5", "result": "- ((-) no activity - the number of cells is equal to the control of growth, 0-40% cell inhibition)"}, {"measurement": "activity (cell inhibition)", "setting": "[5]; CV-1, TEST CONC (µg) 1", "result": "- ((-) no activity - the number of cells is equal to the control of growth, 0-40% cell inhibition)"}, {"measurement": "activity (cell inhibition)", "setting": "[5]; CV-1, TEST CONC (µg) 2", "result": "- ((-) no activity - the number of cells is equal to the control of growth, 0-40% cell inhibition)"}, {"measurement": "activity (cell inhibition)", "setting": "[5]; CV-1, TEST CONC (µg) 5", "result": "- ((-) no activity - the number of cells is equal to the control of growth, 0-40% cell inhibition)"}, {"measurement": "activity (cell inhibition)", "setting": "[5]; CV-1, TEST CONC (µg) 10", "result": "+ ((+) low activity - numbers of cells are reduced by approx 50-60%)"}, {"measurement": "activity (cell inhibition)", "setting": "[5]; CV-1, TEST CONC (µg) 20", "result": "++ ((++) good activity - numbers of cells are reduced by approx 70-90%)"}, {"measurement": "IC50", "setting": "[5]; Primates, CV-1, read-out: IC50 µg/ml approx", "result": "~10", "unit": "µg/mL"}, {"measurement": "IC50", "setting": "[6]; Mesocricetus auratus, read-out: IC50 µg/ml approx", "result": "2 to 5", "unit": "µg/mL"}, {"measurement": "activity (cell inhibition)", "setting": "[6]; TEST CONC (µg) 0.2", "result": "- ((-) no activity - the number of cells is equal to the control of growth, 0-40% cell inhibition)"}, {"measurement": "activity (cell inhibition)", "setting": "[6]; TEST CONC (µg) 0.5", "result": "- ((-) no activity - the number of cells is equal to the control of growth, 0-40% cell inhibition)"}, {"measurement": "activity (cell inhibition)", "setting": "[6]; TEST CONC (µg) 1", "result": "- ((-) no activity - the number of cells is equal to the control of growth, 0-40% cell inhibition)"}, {"measurement": "activity (cell inhibition)", "setting": "[6]; TEST CONC (µg) 2", "result": "- ((-) no activity - the number of cells is equal to the control of growth, 0-40% cell inhibition)"}, {"measurement": "activity (cell inhibition)", "setting": "[6]; TEST CONC (µg) 5", "result": "++ ((++) good activity - numbers of cells are reduced by approx 70-90%)"}, {"measurement": "activity (cell inhibition)", "setting": "[6]; TEST CONC (µg) 10", "result": "+++ ((+++) very good activity - there is 100% cell inhibition)"}, {"measurement": "activity (cell inhibition)", "setting": "[6]; TEST CONC (µg) 20", "result": "+++ ((+++) very good activity - there is 100% cell inhibition)"}, {"measurement": "IC50", "setting": "[7]", "result": "> 40", "unit": "µg/mL"}, {"measurement": "IC50", "setting": "[8]", "result": "> 40", "unit": "µg/mL"}, {"measurement": "cytotoxicity (inhibition zone on the cell sheet)", "setting": "[9]", "result": "0-"}]}]}
